According to patent publication US6958345B2, “2-hydroxymethylcyclopropylidene methylpurines and -pyrimidines as antiviral agents” (The Regents of the University of Michigan, priority 1997, dated 2005):

Assays:
[1] = system: murine cytomegalovirus (MCMV); assay: Mortality of mice infected with murine cytomegalovirus; format: in vivo
Method: (§1) Compounds 1 (B=adenin-N^9-yl and guanin-N^9-yl) were evaluated in mice infected with murine cytomegalovirus (MCMV). Mice were infected intraperitonealy with sufficient MCMV to produce 90 to 100% mortality. Compounds were administered once daily for five days at doses of 5.6, 16.7 and 50 mg/kg by intraperitoneal injection in a 0.4% suspension of carboxymethylcellulose. Ganciclovir was administered in sterile water at the same doses as a positive control drug. All compounds were administered to separate groups of 15 mice each at 6, 24, and 48 hours after infection with MCMV. Groups of 10 uninfected mice also received test compounds as toxicity controls at the doses listed above.

[2] = Toxicity controls: uninfected mice given test compound; format: in vivo; settings: 5.6, 16.7 and 50 mg/kg i.p. once daily for five days
Method: as §1

HHV-6 = HHV-6 ELISA in HSB-2 cells; format: cell-based, human herpes virus 6 (HHV 6)
Method: (c) HHV-6. In this case, enzyme-linked immunosorbent assay (ELISA) was performed in covalent amine plates (Costar, Cambridge, Mass.). The plates were activated by the addition of a homobifunctional crosslinking agent, bis(sulfosuccinimidyl) suberate, which was dissolved at 1 mg/mL in 30 mL of phosphate buffered saline (PBS: 137 mM NaCl, 2.7 mM KCl, 4.3 mM Na2HPO4, 1.4 mM KH2PO4, pH 7.4) and 300 μL of the crosslinker was added to each well in the covalent plate. The crosslinker reacted with the amine function on the plate for 30 min at room temperature. The byproduct, sodium N-hydroxysuccinimide sulfite, was removed by decanting and washing the plate twice with PBS. Samples consisting of 150 μl of mixed suspended HSB2 cells from the original drug-treated plate were solubilized in an equal volume of 10% Triton X-100 in coating buffer (15 mM Na2CO3, […] NaHCO3, pH 9.6). The plate was covered and then incubated for 1 h at 37° C. in a 5% CO2 atmosphere. These binding conditions facilitated covalent attachment of the antigen to the free end of the crosslinker.
After covalent binding, the antigen solution was decanted and the plate was washed six times in HEPES buffered saline (Shipman, C., Jr., Proc. Soc. Exp. Biol. 130:305-310 (1969)) with 0.05% Tween 20 (HBS-T ), soaking for three min for each wash. […] Absorbance in each well was determined at 450/570 nm.

Nc1ncnc2c1ncn2C=C1CC1CO (stereo not drawn) [1 (B = adenine), Example 5, syn-N^9-(2-hydroxymethylcyclopropylidenemethyl)adenine]
mortality of MCMV-infected mice ([1]; 50 mg/kg i.p. once daily for five days, placebo 100%): 33% | effect on mortality at lower doses or delayed administration ([1]; lower doses, administration delayed until 24 or 48 hours after infection): Decreasing effects | deaths in uninfected mice that received only drug [2]: No deaths were observed | IC50 (HHV-6): 3 µM
